Experimental data published in US7868005B2, “Pyrazinyl substituted piperazine-piperidines with CXCR3 antagonist activity” (Schering Corporation, priority 2005, dated 2011).

Biological target: T1, human CXCR3 (N-delta 4) (Homo sapiens, UniProt P49682)
T1 construct: CD8 leader (N); Flag; expressed in transfected cells; membranes prepared
T1 sequence (P49682 5-368 limits assumed): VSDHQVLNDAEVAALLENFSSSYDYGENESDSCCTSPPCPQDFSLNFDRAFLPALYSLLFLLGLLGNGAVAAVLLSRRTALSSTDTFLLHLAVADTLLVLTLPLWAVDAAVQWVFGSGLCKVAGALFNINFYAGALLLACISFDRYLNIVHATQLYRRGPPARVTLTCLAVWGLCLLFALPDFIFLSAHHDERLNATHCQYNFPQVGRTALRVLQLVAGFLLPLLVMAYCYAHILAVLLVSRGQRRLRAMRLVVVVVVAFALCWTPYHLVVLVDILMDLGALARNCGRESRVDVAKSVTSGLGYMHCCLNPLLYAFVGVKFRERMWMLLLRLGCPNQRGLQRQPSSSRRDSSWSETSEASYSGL
Assay: Human CXCR3 (N-delta 4) Scintillation Proximity Assay (SPA), [125I] IP-10 binding to Ba/F3-hCXCR3 membranes
Details: IC50 rating, Table 1; read-out: IC50

| IC50 | SMILES |
| --- | --- |
| > 100 nM | CC[C@H]1CN(c2nc(N)c(C(=O)NCCNS(N)(=O)=O)nc2Cl)CCN1C1CCN([C@H](CO)c2ccc(Cl)cc2)CC1 [compound 262] |
| > 100 nM | CC[C@H]1CN(c2nc(N)c(C(=O)NCCNS(N)(=O)=O)nc2Cl)CCN1C1CCN(C(C(=O)OC)c2ccc(Cl)cc2)CC1 (some centres unmarked) [compound 263] |
| < 25 nM | CC[C@H]1CN(c2nc(N)c(C(=O)NCCNS(N)(=O)=O)nc2Cl)CCN1C1CCN(Cc2ccc(Cl)cc2)CC1 [compound 264] |
| < 25 nM | CC[C@H]1CN(c2nc(N)c(C(=O)NCCNS(N)(=O)=O)nc2Cl)CCN1C1CCN(Cc2ccc(F)c(F)c2)CC1 [compound 265] |
| < 25 nM | CC[C@H]1CN(c2nc(N)c(C(=O)NCCNS(N)(=O)=O)nc2Cl)CCN1C1CCN(Cc2ccc(C#N)cc2)CC1 [compound 266] |
| < 25 nM | CC[C@H]1CN(c2nc(N)c(C(=O)NCCNS(N)(=O)=O)nc2Cl)CCN1C1CCN(Cc2ccc(Cl)cc2C#N)CC1 [compound 267] |
| < 25 nM | CC[C@H]1CN(c2nc(N)c(C(=O)NCCOC)nc2Cl)CCN1C1CCN(Cc2ccc(Cl)cc2)CC1 [compound 268] |
| > 100 nM | CC[C@H]1CN(c2nc(N)c(C(=O)N=C(N)N)nc2Cl)CCN1C1CCN(Cc2ccc(Cl)cc2F)CC1 [compound 269] |
| < 25 nM | CC[C@H]1CN(c2nc(N)c(C(=O)NNC(=S)NC)nc2Cl)CCN1C1CCN(Cc2ccc(Cl)cc2)CC1 [compound 270] |
| < 25 nM | CC[C@H]1CN(c2nc(N)c(C(=O)NN)nc2Cl)CCN1C1CCN(Cc2ccc(Cl)cc2)CC1 [compound 271] |
| 25 to 100 nM | CC[C@H]1CN(c2nc(N)c(C(=O)NNC(C)=O)nc2Cl)CCN1C1CCN(Cc2ccc(Cl)cc2)CC1 [compound 272] |
| > 100 nM | CC[C@H]1CN(c2nc(N)c(C(=O)N[C@@H]3CCN(C(=O)OC(C)(C)C)C3)nc2Cl)CCN1C1CCN(Cc2ccc(Cl)cc2)CC1 [compound 274] |
| > 100 nM | CC[C@H]1CN(c2nc(N)c(C(=O)NCCCN3CCCS3(=O)=O)nc2Cl)CCN1C1CCN(Cc2ccc(C#N)cc2)CC1 [compound 275] |
| > 100 nM | CC[C@H]1CN(c2nc(N)c(C(=O)NCCCN3CCCC3=O)nc2Cl)CCN1C1CCN(Cc2ccc(C#N)cc2)CC1 [compound 276] |
| < 25 nM | CC[C@H]1CN(c2nc(N)c(C(=O)NC3CCOC3=O)nc2Cl)CCN1C1CCN(Cc2ccc(Cl)cc2)CC1 (some centres unmarked) [compound 277] |
| < 25 nM | CC[C@H]1CN(c2nc(N)c(C(=O)NC3CCOC3=O)nc2Cl)CCN1C1CCN(Cc2ccc(Cl)cc2)CC1 (some centres unmarked) [compound 278] |
| < 25 nM | CC[C@H]1CN(c2nc(N)c(C(=O)N[C@H]3CCOC3=O)nc2Cl)CCN1C1CCN(Cc2ccc(Cl)cc2)CC1 [compound 279] |
| > 100 nM | CC[C@H]1CN(c2nc(N)c(C(=O)N[C@@H]3CCNC3=O)nc2Cl)CCN1C1CCN(Cc2ccc(C#N)cc2)CC1 [compound 280] |
| > 100 nM | CC[C@H]1CN(c2nc(N)c(C(N)=O)nc2Cl)CCN1C1(C)CCN(Cc2ccc(Cl)cc2C(N)=O)CC1 [compound 281] |
| 25 to 100 nM | CC[C@H]1CN(c2nc(N)c(C(N)=O)nc2Cl)CCN1C1CCN(Cc2ccc(Cl)cc2)[C@H](C(N)=O)C1 (some centres unmarked) [compound 282] |
| > 100 nM | CC[C@H]1CN(c2nc(N)c(C(N)=O)nc2Cl)CCN1[C@H]1CCN(Cc2ccc(Cl)cc2)C[C@@H]1O [compound 283] |

| IC50 | SMILES |
| --- | --- |
| < 25 nM | CC[C@H]1CN(c2ncc(C(N)=O)nc2Cl)CCN1C1CCN(Cc2ccc(Cl)cc2F)CC1 [compound 284] |
| < 25 nM | CC[C@H]1CN(c2ncc(C(N)=O)nc2Cl)CCN1C1CCN(Cc2ccc(Cl)cc2[C@H](O)C(N)=O)CC1 [compound 285] |
| < 25 nM | CC[C@H]1CN(c2ncc(C(N)=O)nc2Cl)CCN1C1CCN(Cc2ccc(Cl)cc2[C@@H](O)C(N)=O)CC1 [compound 286] |
| > 100 nM | CNC(=O)c1cnc(N2C[C@H](C)N(C3CCN(Cc4ccc(Cl)cc4F)CC3)C[C@H]2C)cn1 [compound 287] |
| > 100 nM | COC(=O)c1cnc(N2C[C@H](C)N(C3CCN(Cc4ccc(Cl)cc4F)CC3)C[C@H]2C)cn1 [compound 288] |
| > 100 nM | C[C@@H]1CN(C2CCN(Cc3ccc(Cl)cc3F)CC2)[C@@H](C)CN1c1cnc(C(N)=O)cn1 [compound 289] |
| < 25 nM | CC[C@H]1CN(c2nc(N(C)C)c(C(=O)OC)nc2Cl)CCN1C1CCN(Cc2ccc(Cl)cc2)CC1 [compound 290] |
| 25 to 100 nM | CC[C@H]1CN(c2nc(NC(=O)N(C)C)c(C(=O)OC)nc2Cl)CCN1C1CCN(Cc2ccc(Cl)cc2)CC1 [compound 291] |
| < 25 nM | CC[C@H]1CN(c2nc(NC(=O)C(F)(F)F)c(C(N)=O)nc2Cl)CCN1C1CCN(Cc2ccc(Cl)cc2F)CC1 [compound 292] |
| > 100 nM | CC[C@H]1CN(c2nc(N)c(C(=O)O)nc2Cl)CCN1C1CCN(Cc2ccc(Cl)cc2)CC1 [compound 293] |
| < 25 nM | CC[C@H]1CN(c2nc(N)c(C(=O)OC)nc2Cl)CCN1C1CCN(Cc2ccc(Cl)cc2CCN)CC1 [compound 294] |
| < 25 nM | CC[C@H]1CN(c2nc(N)c(C(=O)OC)nc2Cl)CCN1C1CCN(Cc2ccc(Cl)cc2F)CC1 [compound 295] |
| < 25 nM | CC[C@H]1CN(c2nc(N)c(C(=O)OC)nc2Cl)CCN1C1CCN(Cc2ccc(Cl)cc2CCNC(=O)OC(C)(C)C)CC1 [compound 296] |
| 25 to 100 nM | CC[C@H]1CN(c2nc(N)c(C(=O)OC)nc2Cl)CCN1C1CCN(Cc2ccc(Cl)cc2OCCNC(=O)NC(C)(C)C)CC1 [compound 297] |
| 25 to 100 nM | CCNC(=O)NCCc1cc(Cl)ccc1CN1CCC(N2CCN(c3nc(N)c(C(=O)OC)nc3Cl)C[C@@H]2CC)CC1 [compound 298] |
| 25 to 100 nM | CC[C@H]1CN(c2nc(N)c(C(=O)OC)nc2Cl)CCN1C1CCN(Cc2ccc(Cl)cc2CC#N)CC1 [compound 299] |
| > 100 nM | CC[C@H]1CN(c2nc(N)c(C(=O)OC)nc2Cl)CCN1C1CCN(Cc2ccc(Cl)cc2C#N)CC1 [compound 300] |
| > 100 nM | COC(=O)c1nc(Cl)c(N2C[C@H](C)N(C3CCN(Cc4ccc(Cl)cc4F)CC3)C[C@H]2C)nc1N [compound 301] |
| > 100 nM | COC(=O)c1nc(Cl)c(N2CCN(C3CCN(Cc4ccc(Cl)cc4)CC3)[C@@H](C)C2)nc1N [compound 302] |
| > 100 nM | CC[C@H]1CN(c2nc(N)c(C(=O)OC)nc2Cl)CCN1C1CCN(Cc2ccc(Cl)cc2CCNS(C)(=O)=O)CC1 [compound 303] |
| < 25 nM | CC[C@H]1CN(c2nc(N)c(C(=O)NCCO)nc2Cl)CCN1C1CCN(C2c3ccc(C#N)cc3CCC2O)CC1 (some centres unmarked) [compound 304] |

| IC50 | SMILES |
| --- | --- |
| > 100 nM | CC[C@H]1CN(c2nc(N)c(C(=O)OC)nc2Cl)CCN1C1CCN(C2c3ccc(C#N)cc3CCC2O)CC1 (some centres unmarked) [compound 305] |
| > 100 nM | CC[C@H]1CN(c2nc(N)c(C(=O)OC)nc2Cl)CCN1C1CCN(Cc2ccc(C#N)cc2O)CC1 [compound 306] |
| > 100 nM | CC[C@H]1CN(c2nc(N)c(C(=O)OC)nc2Cl)CCN1C1CCN(Cc2ccc(C#N)cc2OCCO)CC1 [compound 307] |
| > 100 nM | CC[C@H]1CN(c2nc(N)c(C(=O)OC)nc2Cl)CCN1C1CCN(Cc2ccc(C#N)cc2OCCOC)CC1 [compound 308] |
| > 100 nM | CC[C@H]1CN(c2nc(N)c(C(=O)OC)nc2Cl)CCN1C1CCN(Cc2ccc(Cl)cc2CCNC(C)=O)CC1 [compound 309] |
| > 100 nM | CC[C@H]1CN(c2nc(N)c(C(=O)OC)nc2Cl)CCN1C1(C)CCN(Cc2ccc(Cl)cc2)CC1 [compound 310] |
| > 100 nM | CC[C@H]1CN(c2cnc(C(=O)OC(C)C)c(N)n2)CCN1C1CCN(Cc2ccc(Cl)cc2)CC1 [compound 311] |
| > 100 nM | CC[C@H]1CN(c2nc(N)c(C(=O)N3CCN(C(=O)OC(C)(C)C)CC3)nc2Cl)CCN1C1CCN(Cc2ccc(Cl)cc2)CC1 [compound 312] |
| > 100 nM | CC[C@H]1CN(c2nc(N)c(C(=O)N3CCN(S(C)(=O)=O)CC3)nc2Cl)CCN1C1CCN(Cc2ccc(Cl)cc2)CC1 [compound 313] |
| < 25 nM | CC[C@H]1CN(c2nc(N)c(C(=O)NC3CC3)nc2Cl)CCN1C1CCN(C(=O)c2ccc(Cl)cc2O)CC1 [compound 314] |
| < 25 nM | CC[C@H]1CN(c2nc(N)c(C(=O)NCCO)nc2Cl)CCN1C1CCN(C(=O)c2ccc(Cl)cc2OCCNC(=O)OC(C)(C)C)CC1 [compound 315] |
| < 25 nM | CC[C@H]1CN(c2nc(N)c(C(=O)NCCO)nc2Cl)CCN1C1CCN(C(=O)c2ccc(Cl)cc2OCCNS(=O)(=O)C(F)(F)F)CC1 [compound 316] |
| < 25 nM | CC[C@H]1CN(c2nc(N)c(C(=O)NCCO)nc2Cl)CCN1C1CCN(C(=O)c2ccc(Cl)cc2CC#N)CC1 [compound 317] |
| 25 to 100 nM | CC[C@H]1CN(c2nc(N)c(C(=O)NCCO)nc2Cl)CCN1C1CCN(C(=O)c2ccc(F)c(F)c2)CC1 [compound 318] |
| 25 to 100 nM | CC[C@H]1CN(c2nc(N)c(C(=O)NC[C@H](C)O)nc2Cl)CCN1C1CCN(C(=O)c2ccc(Cl)cc2)CC1 [compound 319] |
| 25 to 100 nM | CC[C@H]1CN(c2nc(N)c(C(=O)NC(CO)CO)nc2Cl)CCN1C1CCN(C(=O)c2ccc(Cl)cc2)CC1 [compound 320] |
| 25 to 100 nM | CC[C@H]1CN(c2nc(N)c(C(=O)NCCO)nc2Cl)CCN1C1CCN(C(=O)c2ccc(C)cc2O)CC1 [compound 321] |
| 25 to 100 nM | CC[C@H]1CN(c2nc(N)c(C(=O)NCCO)nc2Cl)CCN1C1CCN(C(=O)c2ccc(Cl)cc2O)CC1 [compound 322] |
| 25 to 100 nM | CC[C@H]1CN(c2nc(N)c(C(=O)N[C@@H](C)CO)nc2Cl)CCN1C1CCN(C(=O)c2ccc(Cl)cc2)CC1 [compound 323] |
| > 100 nM | CCOC(=O)COc1cc(Cl)ccc1C(=O)N1CCC(N2CCN(c3nc(N)c(C(=O)NCCO)nc3Cl)C[C@@H]2CC)CC1 [compound 324] |
